# Assay results reported in patent US20190276439A1, “METHOD OF TREATING SOLID TUMORS” (priority 2016, published 2019).
# Like-named read-outs stand apart in the source and are kept apart here.
# Key:
# VEGFR 1 = VEGFR 1 (Homo sapiens, UniProt P17948); assay: Compound A kinase selectivity profile; format: biochemical
# VEGFR 2 = VEGFR 2 (Homo sapiens, UniProt P35968); assay: Compound A kinase selectivity profile; format: biochemical
# CSF1R = CSF1R (Homo sapiens, UniProt P07333); assay: Compound A kinase selectivity profile; format: biochemical
# Fms kinase = biological target: T1, Fms kinase (Homo sapiens, UniProt P07333); assay: CSF1R inhibition, [γ-33P-ATP] incorporation assay (Eurofins); format: biochemical
# T1 construct: purchased Eurofins Pharma Discovery Services UK Ltd
# Procedure: Inhibition of compound A on Fins was determined using […] incorporation assay carried by Eurofins Pharma Discovery Services UK Ltd. Fms kinase was incubated with 8 mM MOPS (3-(N-Morpholino)propanesulfonic acid sodium) pH 7.0, 0.2 mM EDTA ((Ethylenedinitrilo)tetraacetic acid disodium salt), 250 μM […] (a peptide), 10 mM MgAcetate and [γ-33P-ATP] (specific activity approx. 500 cpm/pmol, concentration as required). The reaction was initiated by the addition of the MgATP mix. After incubation for 40 minutes at room temperature, the reaction was stopped by the addition of 3% phosphoric acid solution. 10 μL of the reaction was then spotted onto a P30 filtermat and washed three times for 5 minutes in 75 mM phosphoric acid and once in methanol prior to drying and scintillation counting.
# FGFR1 = FGFR1 (Homo sapiens, UniProt P11362); assay: Compound A kinase selectivity profile; format: biochemical
# TrkB = TrkB (Homo sapiens, UniProt Q16620); assay: Compound A kinase selectivity profile; format: biochemical
# advanced solid tumors = assay: Phase 1 clinical study: tumor response (RECIST Version 1.0); format: in vivo, human; settings: total 77 patients
# Procedure: Patients with neuroendocrine tumors (NETs) were enrolled with priority as preliminary efficacy was shown in these tumor types in the dose-escalation stage.
# Tumor response (an exploratory endpoint) was assessed according to Response Evaluation Criteria in Solid Tumors (RECIST) Version 1.0 and measured at baseline, and at the end of every treatment cycle in the first 4 cycles and every other cycle thereafter. Patients with an initial assessment of complete response (CR) or partial response (PR) had to have the result confirmed by a repeat tumor assessment at least 4 weeks later. Calculations of the following parameters were made: objective response rate (ORR) (CR+PR); stable disease (SD) defined as ≥1 assessment of SD at least 6 weeks after study entry; disease control rate (DCR) (CR+PR+SD). Time to response (TTR), duration of response (DoR), and progression-free survival (PFS) were assessed in the subgroup of patients with NET.
# [1] = Phase 1 clinical study: toxicity, DLT and MTD assessments; format: in vivo, human; settings: doses of 50-350 mg QD and 125-150 mg BID; up to 350 mg QD (formulation 2)
# Procedure: During the dose-escalation phase, patients were given a single dose of compound A and monitored for adverse events (AEs) for 7 days. If no clinically significant toxicities were observed, patients could enter the 28-day dose-limiting toxicity (DLT) observation phase where they received compound A continuously for 28 days. DLTs were assessed at the end of the 28-day period. If no patients experienced a DLT during the 28-day period, the dose was escalated (FIG. 1). After the completion of the DLT observation phase, patients could continue compound A treatment at their current dose (if they were judged by the investigator to be benefiting from the treatment) until any of the withdrawal criteria (investigator's decision that withdrawal was in the patient's best interest, intolerable toxicity, disease progression) were met.
# The study used a modified Fibonacci 3+3 dose-escalation design with at least three evaluable patients treated with each dose. In total, 12 dose cohorts were assessed (FIG. 1). […] If […] patients experienced a DLT, the MTD was considered exceeded and the previous lower dose would be re-assessed to determine the MTD. […]
# Safety and tolerability were assessed in all patients who received at least one dose of study medication throughout the study. AEs were recorded throughout the study. […]
# FLT3 = biological target: T2, FLT3 (Homo sapiens, UniProt P36888); assay: Compound A kinase selectivity profile; format: biochemical
# T2 sequence (P36888 27-993): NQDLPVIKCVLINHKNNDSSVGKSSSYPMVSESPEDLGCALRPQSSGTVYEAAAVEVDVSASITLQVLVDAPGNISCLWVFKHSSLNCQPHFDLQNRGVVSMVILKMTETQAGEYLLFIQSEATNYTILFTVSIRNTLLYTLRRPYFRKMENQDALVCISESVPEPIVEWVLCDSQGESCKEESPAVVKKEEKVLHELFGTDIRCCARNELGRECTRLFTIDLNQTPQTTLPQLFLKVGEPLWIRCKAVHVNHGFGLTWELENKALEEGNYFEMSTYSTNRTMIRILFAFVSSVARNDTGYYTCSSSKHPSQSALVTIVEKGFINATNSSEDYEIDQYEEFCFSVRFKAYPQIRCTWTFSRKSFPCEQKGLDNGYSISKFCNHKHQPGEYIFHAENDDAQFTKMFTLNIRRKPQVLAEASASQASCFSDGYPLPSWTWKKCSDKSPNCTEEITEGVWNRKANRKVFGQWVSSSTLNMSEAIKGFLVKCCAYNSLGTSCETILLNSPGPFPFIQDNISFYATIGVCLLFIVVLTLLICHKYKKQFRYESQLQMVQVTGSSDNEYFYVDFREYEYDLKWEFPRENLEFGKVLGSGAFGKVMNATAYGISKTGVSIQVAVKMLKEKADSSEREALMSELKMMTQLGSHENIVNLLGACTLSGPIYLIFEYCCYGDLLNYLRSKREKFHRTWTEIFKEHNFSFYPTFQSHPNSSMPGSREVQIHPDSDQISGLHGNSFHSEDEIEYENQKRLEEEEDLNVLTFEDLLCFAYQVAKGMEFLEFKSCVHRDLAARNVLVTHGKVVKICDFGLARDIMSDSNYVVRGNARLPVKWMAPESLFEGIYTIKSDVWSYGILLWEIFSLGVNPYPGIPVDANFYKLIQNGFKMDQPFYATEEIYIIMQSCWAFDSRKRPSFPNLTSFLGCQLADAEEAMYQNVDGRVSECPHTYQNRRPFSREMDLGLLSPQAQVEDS
# VEGFR 3 = VEGFR 3 (Homo sapiens, UniProt P35916); assay: Compound A kinase selectivity profile; format: biochemical
# 278 other kinases = assay: Compound A kinase selectivity profile; format: biochemical
# NET = settings: cited from earlier work; for ORR: phase 3 trial
# T1 sequence (P07333 20-972): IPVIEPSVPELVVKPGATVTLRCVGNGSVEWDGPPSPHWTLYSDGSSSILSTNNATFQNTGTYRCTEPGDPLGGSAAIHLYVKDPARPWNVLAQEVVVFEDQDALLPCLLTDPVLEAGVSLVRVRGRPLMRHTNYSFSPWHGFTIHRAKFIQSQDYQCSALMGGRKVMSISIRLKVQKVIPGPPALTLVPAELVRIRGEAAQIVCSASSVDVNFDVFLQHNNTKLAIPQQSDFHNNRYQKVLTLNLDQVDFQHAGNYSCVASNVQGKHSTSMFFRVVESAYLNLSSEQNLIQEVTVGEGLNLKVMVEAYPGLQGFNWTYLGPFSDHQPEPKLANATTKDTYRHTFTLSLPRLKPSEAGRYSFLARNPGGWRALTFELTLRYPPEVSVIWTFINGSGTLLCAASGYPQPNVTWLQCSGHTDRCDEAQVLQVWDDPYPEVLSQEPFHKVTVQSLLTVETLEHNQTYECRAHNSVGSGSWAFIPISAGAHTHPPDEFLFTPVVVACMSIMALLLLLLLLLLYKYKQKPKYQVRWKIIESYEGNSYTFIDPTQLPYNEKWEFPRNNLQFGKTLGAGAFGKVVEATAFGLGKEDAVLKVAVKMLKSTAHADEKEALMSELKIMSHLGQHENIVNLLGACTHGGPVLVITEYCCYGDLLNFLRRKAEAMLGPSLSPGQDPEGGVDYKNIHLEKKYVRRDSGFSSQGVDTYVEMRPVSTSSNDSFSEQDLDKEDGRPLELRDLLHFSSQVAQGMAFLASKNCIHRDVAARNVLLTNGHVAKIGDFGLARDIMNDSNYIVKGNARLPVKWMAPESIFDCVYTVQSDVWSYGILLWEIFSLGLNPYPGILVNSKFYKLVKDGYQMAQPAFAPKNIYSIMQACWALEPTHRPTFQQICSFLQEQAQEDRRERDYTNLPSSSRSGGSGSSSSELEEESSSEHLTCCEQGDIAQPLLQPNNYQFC
# TrkB, sequence (Q16620 32-822): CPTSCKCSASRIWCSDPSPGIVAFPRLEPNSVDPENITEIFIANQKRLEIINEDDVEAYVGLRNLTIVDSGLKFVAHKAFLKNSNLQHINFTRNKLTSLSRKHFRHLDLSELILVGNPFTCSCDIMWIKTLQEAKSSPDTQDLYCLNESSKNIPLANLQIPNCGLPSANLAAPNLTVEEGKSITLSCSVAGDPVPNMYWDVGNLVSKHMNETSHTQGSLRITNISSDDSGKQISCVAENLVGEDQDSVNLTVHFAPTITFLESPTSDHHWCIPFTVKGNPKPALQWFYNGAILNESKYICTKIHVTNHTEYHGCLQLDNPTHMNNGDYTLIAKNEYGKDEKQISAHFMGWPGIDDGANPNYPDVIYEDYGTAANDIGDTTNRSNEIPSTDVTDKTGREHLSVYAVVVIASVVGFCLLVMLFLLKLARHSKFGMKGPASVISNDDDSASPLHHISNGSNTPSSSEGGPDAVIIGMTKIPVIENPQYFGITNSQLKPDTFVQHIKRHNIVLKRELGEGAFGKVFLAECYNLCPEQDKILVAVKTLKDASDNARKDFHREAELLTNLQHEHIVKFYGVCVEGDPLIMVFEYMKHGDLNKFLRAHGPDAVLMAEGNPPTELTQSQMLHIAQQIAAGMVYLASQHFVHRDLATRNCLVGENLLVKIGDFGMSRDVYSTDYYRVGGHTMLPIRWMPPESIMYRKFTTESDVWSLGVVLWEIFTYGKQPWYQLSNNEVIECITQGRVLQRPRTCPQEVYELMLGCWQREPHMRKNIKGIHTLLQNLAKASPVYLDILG
# VEGFR 2, sequence (P35968 20-1356): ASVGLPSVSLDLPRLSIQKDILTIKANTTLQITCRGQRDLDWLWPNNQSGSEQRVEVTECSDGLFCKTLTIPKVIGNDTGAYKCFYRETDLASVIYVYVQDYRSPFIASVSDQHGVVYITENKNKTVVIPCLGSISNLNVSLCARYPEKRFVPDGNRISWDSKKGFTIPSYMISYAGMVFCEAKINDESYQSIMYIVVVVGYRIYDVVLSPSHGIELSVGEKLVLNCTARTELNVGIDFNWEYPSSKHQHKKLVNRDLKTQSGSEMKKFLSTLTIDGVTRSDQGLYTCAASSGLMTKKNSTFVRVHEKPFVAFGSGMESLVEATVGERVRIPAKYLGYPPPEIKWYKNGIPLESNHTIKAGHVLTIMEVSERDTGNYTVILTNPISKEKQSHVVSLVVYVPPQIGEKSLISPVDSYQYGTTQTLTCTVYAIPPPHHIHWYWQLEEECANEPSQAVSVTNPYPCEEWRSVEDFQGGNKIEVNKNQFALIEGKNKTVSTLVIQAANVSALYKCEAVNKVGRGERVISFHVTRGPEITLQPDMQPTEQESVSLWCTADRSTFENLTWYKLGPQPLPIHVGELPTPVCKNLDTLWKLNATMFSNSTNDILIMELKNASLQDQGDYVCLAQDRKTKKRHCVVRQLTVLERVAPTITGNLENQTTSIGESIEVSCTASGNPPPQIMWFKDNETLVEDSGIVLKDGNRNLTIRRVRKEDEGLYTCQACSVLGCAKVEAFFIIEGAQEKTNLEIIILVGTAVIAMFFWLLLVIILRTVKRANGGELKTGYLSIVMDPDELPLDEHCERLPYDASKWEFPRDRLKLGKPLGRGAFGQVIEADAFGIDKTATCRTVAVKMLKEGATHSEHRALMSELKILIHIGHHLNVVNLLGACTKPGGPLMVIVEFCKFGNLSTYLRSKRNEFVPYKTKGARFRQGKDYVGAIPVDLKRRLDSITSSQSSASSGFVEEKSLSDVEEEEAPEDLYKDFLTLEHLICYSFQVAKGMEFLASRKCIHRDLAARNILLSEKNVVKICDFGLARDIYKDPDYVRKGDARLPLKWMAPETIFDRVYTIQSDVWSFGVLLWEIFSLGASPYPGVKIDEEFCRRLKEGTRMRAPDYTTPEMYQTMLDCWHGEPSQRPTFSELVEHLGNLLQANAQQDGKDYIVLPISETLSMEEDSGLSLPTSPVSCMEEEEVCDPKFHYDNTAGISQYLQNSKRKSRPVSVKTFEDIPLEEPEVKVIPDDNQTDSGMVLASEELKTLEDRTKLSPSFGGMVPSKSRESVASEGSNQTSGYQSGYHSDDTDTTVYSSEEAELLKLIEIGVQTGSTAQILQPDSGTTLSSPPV
# VEGFR 3, sequence (P35916 25-1363): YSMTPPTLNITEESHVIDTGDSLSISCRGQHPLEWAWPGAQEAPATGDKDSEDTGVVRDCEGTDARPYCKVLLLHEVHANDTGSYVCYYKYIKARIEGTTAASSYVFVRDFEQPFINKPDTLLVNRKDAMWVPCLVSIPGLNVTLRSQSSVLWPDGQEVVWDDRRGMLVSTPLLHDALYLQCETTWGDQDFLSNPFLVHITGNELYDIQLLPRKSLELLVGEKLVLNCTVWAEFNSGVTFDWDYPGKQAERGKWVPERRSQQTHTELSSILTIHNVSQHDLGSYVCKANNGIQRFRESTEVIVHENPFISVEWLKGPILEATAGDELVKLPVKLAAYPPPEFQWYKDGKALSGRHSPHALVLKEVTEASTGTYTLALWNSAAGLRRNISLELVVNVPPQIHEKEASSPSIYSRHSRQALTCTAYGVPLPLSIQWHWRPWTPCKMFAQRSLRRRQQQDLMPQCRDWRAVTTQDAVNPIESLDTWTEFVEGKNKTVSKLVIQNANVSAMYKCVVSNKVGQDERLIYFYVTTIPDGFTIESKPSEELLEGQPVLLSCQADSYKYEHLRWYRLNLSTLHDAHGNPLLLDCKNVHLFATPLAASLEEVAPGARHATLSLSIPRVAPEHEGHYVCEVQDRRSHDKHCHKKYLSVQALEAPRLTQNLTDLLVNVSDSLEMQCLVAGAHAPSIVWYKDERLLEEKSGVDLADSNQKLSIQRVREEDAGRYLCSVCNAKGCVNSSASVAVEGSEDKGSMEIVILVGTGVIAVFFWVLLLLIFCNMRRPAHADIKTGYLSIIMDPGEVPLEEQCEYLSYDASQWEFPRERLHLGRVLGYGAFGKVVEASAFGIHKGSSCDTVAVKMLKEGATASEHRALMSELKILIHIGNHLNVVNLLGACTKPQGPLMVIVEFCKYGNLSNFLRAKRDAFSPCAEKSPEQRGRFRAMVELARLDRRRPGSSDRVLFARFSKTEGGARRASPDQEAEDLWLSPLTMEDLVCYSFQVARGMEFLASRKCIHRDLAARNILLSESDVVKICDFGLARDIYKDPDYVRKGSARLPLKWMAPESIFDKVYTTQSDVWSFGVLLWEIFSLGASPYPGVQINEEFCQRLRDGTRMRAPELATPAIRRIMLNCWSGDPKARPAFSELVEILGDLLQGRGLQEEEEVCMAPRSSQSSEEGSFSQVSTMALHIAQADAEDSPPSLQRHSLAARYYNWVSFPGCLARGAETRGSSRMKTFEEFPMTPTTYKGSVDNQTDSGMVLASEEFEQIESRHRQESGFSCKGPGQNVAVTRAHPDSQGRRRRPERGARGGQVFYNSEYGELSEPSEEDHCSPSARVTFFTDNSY
# CSF1R, sequence (P07333 20-972): as the sequence (P07333 20-972) above
structure (smiles),measurement,setting,value
"Cc1cc2cc(Oc3ccnc(Nc4cccc(CS(=O)(=O)NCCN(C)C)c4)n3)ccc2[nH]1 [Compound A, N-(2-(dimethylamino)ethyl)-1-(3-((4-((2-methyl-1H-indol-5-yl)oxy)pyrimidin-2-yl)amino)phenyl)-methanesulfonamide]",IC50,VEGFR 1,2 nM
same,IC50,VEGFR 2,24 nM
same,IC50,CSF1R,4 nM
same,IH (%),Fms kinase; 0.0001 μM,−3%
same,IH (%),Fms kinase; 0.0003 μM,3%
same,IH (%),Fms kinase; 0.001 μM,15%
same,IH (%),Fms kinase; 0.003 μM,38%
same,IH (%),Fms kinase; 0.01 μM,72%
same,IH (%),Fms kinase; 0.03 μM,86%
same,IH (%),Fms kinase; 0.1 μM,94%
same,IH (%),Fms kinase; 0.3 μM,98%
same,IH (%),Fms kinase; 1 μM,98%
same,IC50,FGFR1,15 nM
same,IC50,TrkB,41 nM
same,patients with confirmed PR,advanced solid tumors,nine
same,MTD (maximum tolerated dose),[1],not reached
same,IC50,FLT3,67 nM
same,IC50,VEGFR 3,1 nM
same,IC50,278 other kinases,> 150 nM
CO[C@H]1C[C@@H]2CC[C@@H](C)[C@@](O)(O2)C(=O)C(=O)N2CCCC[C@H]2C(=O)O[C@H]([C@H](C)C[C@@H]2CC[C@@H](OCCO)[C@H](OC)C2)CC(=O)[C@H](C)/C=C(\C)[C@@H](O)[C@@H](OC)C(=O)[C@H](C)C[C@H](C)/C=C/C=C/C=C/1C [everolimus],ORR,NET; GI and lung NET,2%
same,ORR,NET; pancreatic NET,5%
same,median PFS,NET; phase 3 trials,approximately 11 months
